Assay results taken from patent publication US20250074891A1 (Anaxis Pharma Pty Ltd., priority 2021, published 2025).

Legend:
MLKL (full length) = MLKL (full length) (Homo sapiens (Human), UniProt Q8NB16); assay: KINOMEscan binding assay, MLKL (full length)
Method: (§1) Kinase assays. For most assays, kinase-tagged T7 phage strains were grown in parallel in 24-well blocks in an E. coli host derived from the BL21 strain. E. coli were grown to log-phase and infected with T7 phage from a frozen stock (multiplicity of infection=0.4) and incubated with shaking at 32° C. until lysis (90-150 minutes).
(§2) The Hill Slope was set to −1.

RIP1 = RIP1 (Homo sapiens (Human), UniProt Q13546); assay: KINOMEscan binding assay, RIP1; details: Table 35
RIP3 = RIP3 (Homo sapiens (Human), UniProt Q9Y572); assay: KINOMEscan binding assay, RIP3; details: Table 35
Method: as §1, §2

[1] = test system: U937 human histiocytic leukemia cell line; assay: Cellular assay: inhibition of TSQ induced necroptosis (CellTitre-Glo); details: Homo sapiens, U-937; U937 cells, TSQ cocktail, 48 hours, Table 38; read-out: Inhibition of TSQ-induced necroptosis (IC50 cell-based assay)
Method: […] ASSAY: Screening compounds for inhibition of TSQ induced necroptosis, 384 well plate format.
Cell Line ID: U937 human histiocytic leukemia cell line.
Cell Concentration (cells/well): Final cell density is 20,000 cells per well.
Cell growth medium: HT-RPMI medium+7.4% Fetal Bovine Serum (FBS). Cells are cultured in Corning 150 cm^z tissue culture flasks with vented caps at 37° C./5% CO2.
Incubation: Plates were incubated at 37° C./5% CO2 in a humidified incubator for 48 hours following addition of compounds and death stimuli (TSQ cocktail).
Compound concentration: 36 μM starting concentration, 1:3 dilution, 10 point
DMSO final concentration (% v/v): 0.3%.
Compounds in TSQ cocktail (T: TNF; S: Smac mimetic; Q: Q-VD-OPh) and their final concentrations: • hTNF-Fc (100 ng/ml)—produced by standard procedures as shown in Bossen et al., J Biol Chem, 2006, 281(20), 13964-13971. • Compound A (500 nM)—Smac mimetic, Tetralogic and SYNthesis med chem • Q-VD-OPh (10 μM)—MP Biomedicals
The cellular assay was carried out according to the following steps: • 1. Each well was prepared by sequential addition of: • a. DMSO (control; columns 1-2 and 23-24) or compound in DMSO—addition was performed using acoustic transfer of nl volumes of stock compound to give final test concentrations of 36, 12, 4, 1.3, 0.44, 0.148, 0.049, 0.016, 0.005 and 0.002 μM. All wells were backfilled with DMSO to a final total volume in the well of 100 nl. • b. Following compound/DMSO addition in step (a), 40 μL of cell suspension (5×10^5 cells/mL) was added to provide a final cell concentration of 20,000 cells per well, and • c. Following cell addition in step (b), 10 μL of 5×TSQ cocktail (except to positive controls; […]) was added to each well. • 2. After 48 hours, plate was removed from the 37° C. incubator and equilibrated to room temperature for 45 minutes. • 3. 15 μL of room temperature CellTitre-Glo2™ (Promega™) was added to each well. • 4. Shook plates for 2 minutes (˜600 rpm) and incubated at room temperature for 15 minutes to allow signal to stabilise. • 5. Read luminescence readout on a plate reader.
Percent viability was calculated for each compound according to equation (2):
[formula] • wherein • RawData is the readout of any cell containing a compound of the invention • TA is the total activity provided by the luminescence readout from DMSO only wells (columns 2 and 24)=100% viability • NSA is the non-specific activity provided by DMSO+TSQ wells (columns 1 and 23)=0% viability
Curve fitting: 10-point titration curves are fitted with the 4-parameter logistic nonlinear regression model and the IC50 reported is the inflection point of the curve.
Analysis: Data was loaded into Dotmatics™ and visualised using the Tibco® Spotfire™ software. 10 points titration curves were fitted with the 4-parameter logistic nonlinear regression model and the IC50 reported reflect the inflection point of the curve for curve fitting.
Assay involving the TSQ cocktail (T: TNF; S: Smac mimetic; Q: Q-VD-OPh): TSQ treatment ensures that cells specifically undergo necroptotic cell death. TNF activates the TNF receptor, Smac mimetic directs the signal away from proinflammatory signaling and toward the RIP1/RIP3-mediated cell death pathways, and Q-VD-OPh ensures that the apoptotic response is blocked leaving only the programmed necrosis response. The compounds' activity (solution in DMSO) tested in this TSQ-induced assay was evaluated by determining the number of viable cells in culture by measuring the amount of ATP present as measured by CelltiterGlo.

U937 cells = assay: Counter screen: cell viability without TSQ cocktail (off-target effect); set-up: species or system human; details: Homo sapiens, U-937, Table 38, read-out: Off-target effect (IC50 cell-based assay)
Method: Counter screen: In parallel, all compounds were tested for their ability to affect cell viability. The same U937 cells were treated with compound in DMSO without the TSQ cocktail. This counter screen enabled evaluation of off-target effects. In this case, cell viability was measured by CelltiterGlo.

Sequence of MLKL (full length) (Q8NB16 whole entry): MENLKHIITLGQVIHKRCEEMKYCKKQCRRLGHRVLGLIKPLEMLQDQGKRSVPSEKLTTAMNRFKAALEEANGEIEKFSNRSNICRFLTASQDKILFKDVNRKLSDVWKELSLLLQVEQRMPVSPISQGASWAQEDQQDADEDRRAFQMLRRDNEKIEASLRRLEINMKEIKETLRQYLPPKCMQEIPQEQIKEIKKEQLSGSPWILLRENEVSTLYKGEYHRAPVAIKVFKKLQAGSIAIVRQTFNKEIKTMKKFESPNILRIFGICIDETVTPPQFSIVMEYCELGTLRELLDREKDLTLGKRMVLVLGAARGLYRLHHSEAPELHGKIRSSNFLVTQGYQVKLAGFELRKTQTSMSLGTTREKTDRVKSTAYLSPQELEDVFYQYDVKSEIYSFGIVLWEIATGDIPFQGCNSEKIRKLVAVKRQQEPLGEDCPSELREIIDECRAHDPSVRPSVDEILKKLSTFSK
Sequence of RIP1 (Q13546 whole entry): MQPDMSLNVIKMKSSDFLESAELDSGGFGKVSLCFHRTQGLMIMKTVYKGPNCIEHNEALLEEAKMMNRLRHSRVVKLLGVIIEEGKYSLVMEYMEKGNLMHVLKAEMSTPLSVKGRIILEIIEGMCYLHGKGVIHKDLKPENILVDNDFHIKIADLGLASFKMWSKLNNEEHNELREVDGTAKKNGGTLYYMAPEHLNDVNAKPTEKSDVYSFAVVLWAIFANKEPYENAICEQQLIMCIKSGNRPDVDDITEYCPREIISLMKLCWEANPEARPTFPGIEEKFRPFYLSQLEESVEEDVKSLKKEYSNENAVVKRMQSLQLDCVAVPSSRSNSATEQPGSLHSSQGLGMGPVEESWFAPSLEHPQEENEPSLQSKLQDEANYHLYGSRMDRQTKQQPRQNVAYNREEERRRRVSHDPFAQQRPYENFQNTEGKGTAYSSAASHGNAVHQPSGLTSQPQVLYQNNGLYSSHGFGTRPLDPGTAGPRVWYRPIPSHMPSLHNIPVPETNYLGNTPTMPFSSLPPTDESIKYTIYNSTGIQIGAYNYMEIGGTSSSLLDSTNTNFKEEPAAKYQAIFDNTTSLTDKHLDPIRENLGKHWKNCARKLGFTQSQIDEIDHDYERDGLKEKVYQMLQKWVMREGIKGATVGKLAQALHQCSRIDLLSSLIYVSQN
Sequence of RIP3 (Q9Y572 whole entry): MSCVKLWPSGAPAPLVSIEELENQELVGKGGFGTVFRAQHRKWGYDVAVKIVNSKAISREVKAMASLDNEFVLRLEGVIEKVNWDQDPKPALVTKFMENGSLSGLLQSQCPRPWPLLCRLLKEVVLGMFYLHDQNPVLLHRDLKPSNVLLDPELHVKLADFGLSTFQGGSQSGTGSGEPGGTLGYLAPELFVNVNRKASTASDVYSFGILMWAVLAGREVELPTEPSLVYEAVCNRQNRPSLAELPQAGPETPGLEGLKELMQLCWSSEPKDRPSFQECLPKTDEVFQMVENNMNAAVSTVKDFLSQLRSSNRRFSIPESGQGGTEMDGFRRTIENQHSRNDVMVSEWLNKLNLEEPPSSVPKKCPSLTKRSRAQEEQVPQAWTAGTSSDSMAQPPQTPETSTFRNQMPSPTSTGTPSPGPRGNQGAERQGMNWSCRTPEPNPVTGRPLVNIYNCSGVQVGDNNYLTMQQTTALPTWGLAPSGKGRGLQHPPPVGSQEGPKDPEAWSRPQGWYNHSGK

| Kd (MLKL (full length); Table 35) [µM] | Kd (RIP1) [µM] | Kd (RIP3) [µM] | Kd (MLKL (full length); Table 36) [µM] | Structure (SMILES) | IC50 [1] [µM] | IC50 (U937 cells) [µM] |
| --- | --- | --- | --- | --- | --- | --- |
| < 0.01 | > 30 | > 30 | – | Cc1cc(Nc2c(C(N)=O)c(-c3ccc(NS(=O)(=O)C(F)F)c(O[C@@H](C)c4ccc(F)cc4)c3)nn2C)no1 [Compound 320, (S)-3-(4-((difluoromethyl)sulfonamido)-3-(1-(4-fluorophenyl)ethoxy)phenyl)-1-methyl-5-((5-methylisoxazol-3-yl)amino)-1H-pyrazole-4-carboxamide] | – | – |
| – | – | – | – | CCS(=O)(=O)Nc1ccc(-c2n[nH]c(Nc3ccnc(OCCOCCOCCOCCNC(=O)COc4cccc5c4C(=O)N(C4CCC(=O)NC4=O)C5=O)c3)c2C(N)=O)cc1 (stereo not shown) [Compound 1002, 5-({2-[2-(2-{2-[2-(2-{[2-(2,6-dioxopiperidin-3-yl)-1,3-dioxo-2,3-dihydro-1H-isoindol-4-yl]oxy}acetamido)ethoxy]ethoxy}ethoxy)ethoxy]pyridin-4-yl}amino)-3-(4-ethanesulfonamidophenyl)-1H-pyrazole-4-carboxamide] | > 10 | > 10 |
| – | – | – | – | CCS(=O)(=O)Nc1ccc(-c2n[nH]c(Nc3ccnc(OCCOCCNC(=O)COc4cccc5c4C(=O)N(C4CCC(=O)NC4=O)C5=O)c3)c2C(N)=O)cc1 (stereo not shown) [Compound 1003, 5-((2-(2-(2-(2-((2-(2,6-dioxopiperidin-3-yl)-1,3-dioxoisoindolin-4-yl)oxy)acetamido)ethoxy)ethoxy)pyridin-4-yl)amino)-3-(4-(ethylsulfonamido)phenyl)-1H-pyrazole-4-carboxamide] | > 10 | > 10 |
| – | – | – | – | CCS(=O)(=O)Nc1ccc(-c2n[nH]c(Nc3ccnc(OCCOCCOCCNC(=O)COc4cccc5c4C(=O)N(C4CCC(=O)NC4=O)C5=O)c3)c2C(N)=O)cc1 (stereo not shown) [Compound 1004, 5-((2-(2-(2-(2-(2-((2-(2,6-dioxopiperidin-3-yl)-1,3-dioxoisoindolin-4-yl)oxy)acetamido)ethoxy)ethoxy)ethoxy)pyridin-4-yl)amino)-3-(4-(ethylsulfonamido)phenyl)-1H-pyrazole-4-carboxamide] | > 10 | > 10 |
| – | – | – | < 0.01 | CCS(=O)(=O)Nc1ccc(-c2n[nH]c(Nc3ccnc(OCCOCCOCCOCCOCCOCC(=O)N[C@H](C(=O)N4C[C@H](O)C[C@H]4C(=O)NCc4ccc(-c5scnc5C)cc4)C(C)(C)C)c3)c2C(N)=O)cc1 [Compound 1008, 3-(4-ethanesulfonamidophenyl)-5-({2-[(1-{[(2S)-1-[(2S,4R)-4-hydroxy-2-({[4-(4-methyl-1,3-thiazol-5-yl)phenyl]methyl}carbamoyl)pyrrolidin-1-yl]-3,3-dimethyl-1-oxobutan-2-yl]carbamoyl}-2,5,8,11,14-pentaoxahexadecan-16-yl)oxy]pyridin-4-yl}amino)-1H-pyrazole-4-carboxamide] | > 10 | > 10 |
| – | – | – | < 0.01 | CCS(=O)(=O)Nc1ccc(-c2n[nH]c(Nc3ccnc(OCCOCCOCCOCCOCCOCCOCC(=O)N[C@H](C(=O)N4C[C@H](O)C[C@H]4C(=O)NCc4ccc(-c5scnc5C)cc4)C(C)(C)C)c3)c2C(N)=O)cc1 [Compound 1009, 3-(4-ethanesulfonamidophenyl)-5-({2-[(1-{[(2S)-1-[(2S,4R)-4-hydroxy-2-({[4-(4-methyl-1,3-thiazol-5-yl)phenyl]methyl}carbamoyl)pyrrolidin-1-yl]-3,3-dimethyl-1-oxobutan-2-yl]carbamoyl}-2,5,8,11,14,17-hexaoxanonadecan-19-yl)oxy]pyridin-4-yl}amino)-1H-pyrazole-4-carboxamide] | > 10 | > 10 |
| – | – | – | 0.01 to 1 | CCS(=O)(=O)Nc1ccc(-c2n[nH]c(Nc3ccnc(OCCOCC(=O)N[C@H](C(=O)N4C[C@H](O)C[C@H]4C(=O)NCc4ccc(-c5scnc5C)cc4)C(C)(C)C)c3)c2C(N)=O)cc1 [Compound 1010, 3-(4-ethanesulfonamidophenyl)-5-({2-[2-({[(2S)-1-[(2S,4R)-4-hydroxy-2-({[4-(4-methyl-1,3-thiazol-5-yl)phenyl]methyl}carbamoyl)pyrrolidin-1-yl]-3,3-dimethyl-1-oxobutan-2-yl]carbamoyl}methoxy)ethoxy]pyridin-4-yl}amino)-1H-pyrazole-4-carboxamide] | > 10 | > 10 |
| – | – | – | < 0.01 | Cc1ncsc1-c1ccc(CNC(=O)[C@@H]2C[C@@H](O)CN2C(=O)[C@@H](NC(=O)COCCOc2cc(Nc3[nH]nc(-c4ccc(NS(=O)(=O)CC(F)(F)F)cc4)c3C(N)=O)ccn2)C(C)(C)C)cc1 [Compound 1011, 5-({2-[2-({[(2S)-1-[(2S,4R)-4-hydroxy-2-({[4-(4-methyl-1,3-thiazol-5-yl)phenyl]methyl}carbamoyl)pyrrolidin-1-yl]-3,3-dimethyl-1-oxobutan-2-yl]carbamoyl}methoxy)ethoxy]pyridin-4-yl}amino)-3-[4-(2,2,2-trifluoroethanesulfonamido)phenyl]-1H-pyrazole-4-carboxamide] | > 10 | > 10 |
| – | – | – | – | Cc1ncsc1-c1ccc(CNC(=O)[C@@H]2C[C@@H](O)CN2C(=O)[C@@H](NC(=O)c2cccc(COc3ccc(Nc4[nH]nc(-c5ccc(NS(=O)(=O)C(F)F)c(O[C@@H](C)c6ccc(F)cc6)c5)c4C(N)=O)nc3)c2)C(C)(C)C)cc1 [Compound 1031, 3-(4-(difluoromethylsulfonamido)-3-((S)-1-(4-fluorophenyl)ethoxy)phenyl)-5-((5-((3-(((S)-1-((2S,4R)-4-hydroxy-2-((4-(4-methylthiazol-5-yl)benzyl)carbamoyl)pyrrolidin-1-yl)-3,3-dimethyl-1-oxobutan-2-yl)carbamoyl)benzyl)oxy)pyridin-2-yl)amino)-1H-pyrazole-4-carboxamide] | < 1 | 1 to 10 |
| – | – | – | – | Cc1ncsc1-c1ccc(CNC(=O)[C@@H]2C[C@@H](O)CN2C(=O)[C@@H](NC(=O)CCCCCCOc2ccc(Nc3[nH]nc(-c4ccc(NS(=O)(=O)C(F)F)c(O[C@@H](C)c5ccc(F)cc5)c4)c3C(N)=O)nc2)C(C)(C)C)cc1 [Compound 1059, 3-[4-(difluoromethanesulfonamido)-3-[(1S)-1-(4-fluorophenyl)ethoxy]phenyl]-5-({5-[(6-{[(2S)-1-[(2S,4R)-4-hydroxy-2-({[4-(4-methyl-1,3-thiazol-5-yl)phenyl]methyl}carbamoyl)pyrrolidin-1-yl]-3,3-dimethyl-1-oxobutan-2-yl]carbamoyl}hexyl)oxy]pyridin-2-yl}amino)-1H-pyrazole-4-carboxamide] | < 1 | 1 to 10 |
| < 0.01 | > 30 | > 30 | – | CCS(=O)(=O)Nc1ccc(-c2n[nH]c(Nc3ccn(C)n3)c2C(N)=O)cc1 [compound 91, 3-(4-(ethyl-sulfonamido)phenyl)-5-((1-methyl-1H-pyrazol-3-yl)amino)-1H-pyrazole-4-carboxamide] | – | – |
